According to patent US20150290306A1, “COMPOSITIONS AND METHODS FOR DIAGNOSIS AND TREATMENT OF MALIGNANT GLIOMAS” (priority 2012, published 2015):

Test system: PBMCs
Experiment: PBMC culture with candidate peptides for 14 days, IFN-γ and IL-5 in supernatant by ELISA
Type: cell-based, human
Settings: for IFN-γ/IL-5 ratio (geometric mean): peptide 10 μg/mL
Description: Measurement of antigen-specific T cell responses in the peripheral blood in humans differs depending on whether responses are high affinity interactions with foreign (viral) epitopes or lower affinity interactions involving recognition of self-antigens. […] Given that T cell responses directed against MAGE and IL-13Rα2 antigens also involve T cells with low affinity to these self-antigens, antigen-specific responses were quantified based on cytokine secretion, as recently described in a phase I study of patients with MS (Viglietta V, et al: Neurology 2008, 71(12):917-924). Cytokine production was quantified by ELISA, defining a positive T cell response for each patient as the amounts of IFN-γ or IL-5 that were >50 pg/mL and two standard deviations above the mean cytokine levels secreted after stimulation of cells from that patient with negative control MBP peptide.
Twenty-five mL of blood from patients or healthy subjects was obtained under an IRB-approved protocol. All samples of blood from patients were taken at the time of surgery. […] All tumor-bearing patients received similar doses of steroids and anti-epileptic medications at the time of tumor debulking surgery prior to obtaining peripheral blood for these studies. T cell responses in patients with meningiomas controlled for influences of steroids on antigen responsiveness and cytokine balance. Tumor tissue was independently confirmed in all cases by formal pathological analysis. PBMCs were purified from heparinized blood by density gradient centrifugation using Ficoll-Hypaque (GE Healthcare Biosciences), and cells were then washed with PBS and viable cells quantified by trypan-blue staining.
Freshly isolated PBMCs were plated at 2×10^5 cells/well in 200 μl of serum-free X-VIVO15 (X15) media (Lonza) in 96-well round-bottom cell culture plates. Candidate peptides, in addition to a negative control peptide derived from MBP were added at a concentration of 10 μg/mL and anti-CD3 mAb was added at a concentration of 1 μg/mL. Six T cell cultures were established for each condition in each subject, and 100 IU/ml of IL-2 was added on the following day. Plates were incubated at 37° C. and 5% CO2 for 14 days, with media changed as needed, and the supernatant was harvested to evaluate T cell responses (cytokines) induced by each condition using ELISA. In a limited number (n=3) of patients, cytokine production was assessed after both 7 and 14 days. […] An IFN-γ ELISPOT assay was performed as previously described (Lv H, Havari E, et al: J Clin Invest, 121(4):1561-1573).
To detect T helper cell responses directed against the candidate peptides, IFN-γ and IL-5 were measured by ELISA using commercially available kits supplied by BD bioscience. IFN-γ was used as a prototypic Th1 cytokine and IL-5 was chosen as a prototypic cytokine released by Th2 cells because unlike IL-4 there would be no potential consumption by antigen-specific T cells in the culture conditions (Kourilsky P, Truffa-Bachi P: Trends Immunol 2001, 22(9):502-509).

Sequence	positive wells among 6 primary T cell responses (IFN-γ or IL-5 ELISA) (Healthy Subject 1)	positive wells among 6 primary T cell responses (IFN-γ or IL-5 ELISA) (Healthy Subject 4)	positive wells among 6 primary T cell responses (IFN-γ or IL-5 ELISA) (Healthy Subject 5)	positive wells among 6 primary T cell responses (IFN-γ or IL-5 ELISA) (Healthy Subject 6)	positive wells among 6 primary T cell responses (IFN-γ or IL-5 ELISA) (Meningioma 5)	positive wells among 6 primary T cell responses (IFN-γ or IL-5 ELISA) (Meningioma 6)	positive wells among 6 primary T cell responses (IFN-γ or IL-5 ELISA) (Primary GBM 1)	positive wells among 6 primary T cell responses (IFN-γ or IL-5 ELISA) (Primary GBM 2)	positive wells among 6 primary T cell responses (IFN-γ or IL-5 ELISA) (Primary GBM 3)	positive wells among 6 primary T cell responses (IFN-γ or IL-5 ELISA) (Primary GBM 4)	positive wells among 6 primary T cell responses (IFN-γ or IL-5 ELISA) (Primary GBM 5)	positive wells among 6 primary T cell responses (IFN-γ or IL-5 ELISA) (Primary GBM 7)	positive wells among 6 primary T cell responses (IFN-γ or IL-5 ELISA) (Primary GBM 8)	positive wells among 6 primary T cell responses (IFN-γ or IL-5 ELISA) (Recurrent GBM 1)	positive wells among 6 primary T cell responses (IFN-γ or IL-5 ELISA) (Recurrent GBM 3)	positive wells among 6 primary T cell responses (IFN-γ or IL-5 ELISA) (Recurrent GBM 5)	IFN-γ/IL-5 ratio (geometric mean) (healthy subjects)	IFN-γ/IL-5 ratio (geometric mean) (patients with primary GBMs)	IFN-γ/IL-5 ratio (geometric mean) (patients with recurrent GBMs)	positive wells among 6 primary T cell responses (IFN-γ or IL-5 ELISA) (Primary GBM 6)	also measured
ILILVIFVTGLLLRK [IL-13Ra2351-365]	+ (+/++ cell=1-2 positive wells)	+++++ (+++++/++++++ cell=5-6 positive wells)	++ (+/++ cell=1-2 positive wells)	++ (+/++ cell=1-2 positive wells)	++ (+/++ cell=1-2 positive wells)	++++++ (+++++/++++++ cell=5-6 positive wells)	+++ (+++/++++ cell=3-4 positive wells)	++ (+/++ cell=1-2 positive wells)	++ (+/++ cell=1-2 positive wells)	+++ (+++/++++ cell=3-4 positive wells)	+ (+/++ cell=1-2 positive wells)	+++ (+++/++++ cell=3-4 positive wells)	+++++ (+++++/++++++ cell=5-6 positive wells)	++ (+/++ cell=1-2 positive wells)	+ (+/++ cell=1-2 positive wells)	++ (+/++ cell=1-2 positive wells)	2.0	0.3	0.05		positive wells among 6 primary T cell responses (IFN-γ or IL-5 ELISA) (Meningioma 3): + (+/++ cell=1-2 positive wells); IFN-γ/IL-5 ratio, recurrent GBM patients compared to primary GBM patients (P<0.05): significantly lower
KVDELAHFLLRKYRAK [MAGE-A3112-127]	+++ (+++/++++ cell=3-4 positive wells)	++ (+/++ cell=1-2 positive wells)	+ (+/++ cell=1-2 positive wells)		+++ (+++/++++ cell=3-4 positive wells)	+ (+/++ cell=1-2 positive wells)		++ (+/++ cell=1-2 positive wells)	++ (+/++ cell=1-2 positive wells)	+ (+/++ cell=1-2 positive wells)	+++++ (+++++/++++++ cell=5-6 positive wells)	+++ (+++/++++ cell=3-4 positive wells)	++++ (+++/++++ cell=3-4 positive wells)	+ (+/++ cell=1-2 positive wells)	++ (+/++ cell=1-2 positive wells)	+ (+/++ cell=1-2 positive wells)	4.9	0.2	0.04	++ (+/++ cell=1-2 positive wells)	positive wells among 6 primary T cell responses (IFN-γ or IL-5 ELISA) (Healthy Subject 3): ++ (+/++ cell=1-2 positive wells); positive wells among 6 primary T cell responses (IFN-γ or IL-5 ELISA) (Recurrent GBM 2): + (+/++ cell=1-2 positive wells); positive wells among 6 primary T cell responses (IFN-γ or IL-5 ELISA) (Recurrent GBM 4): ++ (+/++ cell=1-2 positive wells)
LLRFWLPFGFILILV [IL-13Ra2341-355]		+ (+/++ cell=1-2 positive wells)	++++ (+++/++++ cell=3-4 positive wells)	+ (+/++ cell=1-2 positive wells)	++ (+/++ cell=1-2 positive wells)	+ (+/++ cell=1-2 positive wells)	+ (+/++ cell=1-2 positive wells)	++ (+/++ cell=1-2 positive wells)	+++++ (+++++/++++++ cell=5-6 positive wells)		++ (+/++ cell=1-2 positive wells)	+++ (+++/++++ cell=3-4 positive wells)	++++ (+++/++++ cell=3-4 positive wells)	++ (+/++ cell=1-2 positive wells)			1.6	0.3	0.02	++ (+/++ cell=1-2 positive wells)	positive wells among 6 primary T cell responses (IFN-γ or IL-5 ELISA) (Healthy Subject 2): + (+/++ cell=1-2 positive wells)
LRKYRAKELVTKAEML [MAGE-A3121-136]	+++ (+++/++++ cell=3-4 positive wells)	+ (+/++ cell=1-2 positive wells)	+ (+/++ cell=1-2 positive wells)	+ (+/++ cell=1-2 positive wells)		+ (+/++ cell=1-2 positive wells)	++ (+/++ cell=1-2 positive wells)	++ (+/++ cell=1-2 positive wells)	++++ (+++/++++ cell=3-4 positive wells)	++ (+/++ cell=1-2 positive wells)	++++ (+++/++++ cell=3-4 positive wells)	++++ (+++/++++ cell=3-4 positive wells)	++ (+/++ cell=1-2 positive wells)	++ (+/++ cell=1-2 positive wells)	+ (+/++ cell=1-2 positive wells)	+ (+/++ cell=1-2 positive wells)	8.1	0.1	0.06	++ (+/++ cell=1-2 positive wells)	positive wells among 6 primary T cell responses (IFN-γ or IL-5 ELISA) (Healthy Subject 2): + (+/++ cell=1-2 positive wells); positive wells among 6 primary T cell responses (IFN-γ or IL-5 ELISA) (Healthy Subject 3): +++ (+++/++++ cell=3-4 positive wells); positive wells among 6 primary T cell responses (IFN-γ or IL-5 ELISA) (Meningioma 1): + (+/++ cell=1-2 positive wells); positive wells among 6 primary T cell responses (IFN-γ or IL-5 ELISA) (Meningioma 2): +++ (+++/++++ cell=3-4 positive wells); positive wells among 6 primary T cell responses (IFN-γ or IL-5 ELISA) (Recurrent GBM 4): + (+/++ cell=1-2 positive wells)
